What was measured:
[1] = tested on: HT29 cells; assay: Cell cycle analysis, flow cytometry of propidium iodide stained cells; type: cell-based, human; details: 12 h
Method: (§1) The cells are fixed in 70% ethanol and stored at −20° C. until analysis is performed (1-2 weeks). After fixing, the cells are pelleted and incubated in PBS containing propidium iodide ([…]) and RNase A (200 mg/ml) for at least 30 min at room temperature. The samples (2×10^4 events) are analysed using a Becton Dickson FACScan, fluorescence is collected in fluorescence detector 2 (FL2), filter 575/30 nm band pass. Cell cycle distribution is assessed using Cell Quest software (Becton Dickson).
(§2) The ability of the protein phosphatase inhibitors to abrogate the G1 or G2 checkpoint of the cell cycle may be determined by cell cycle analysis using flow cytometry. Briefly, asynchronous cell cultures are harvested 18 h after 6 Gy irradiation and/or 12 h incubation with the protein phosphatase inhibitor. Depending upon the p53 status of the cell line, radiation treatment alone will induce arrest in either G1 and/or G2 phase of the cell cycle.
(§3) Data shown in Table 2 and FIG. 4 show the cell cycle response of L1210, HL60, HT29 and HCT116 cells to cantharidin and the new cantharidin analogues MK-2 and MK-4 after 12 h exposure. In summary, cantharidin and MK-2 produced a similar response and induced G2 arrest in all four cell lines tested. […] HL60 and HCT116 cells. […] The magnitude of the cell cycle arrest induced by these drugs directly correlated with their cytotoxicity in the respective cell lines. […] The cytotoxicity of the […]

[2] = tested on: HL60 cells; assay: as above; type: cell-based, human
Method: as §1, §2, §3

[3] = tested on: HCT116 cells; assay: as above; type: cell-based, human
Method: as §1, §2, §3

[4] = tested on: L1210 cells; assay: MTT cytotoxicity assay, 72 h; type: cell-based, murine; details: L1210, p53 wt; read-out: IC50 (mean ± SE) after 72 h continuous exposure
Method: Cells in a subconfluent phase are transferred to 96-well microtitre plates. L1210 cells are plated at a density of 1000 cells/well in 100 μl medium, while all other cell lines are plated at a density of 2000-25000 cells/well. The cells are left for 24 h prior to treatment to ensure exponential growth has been achieved, 24 h after plating (day 0), 100 μl of phosphatase inhibitor is added to each well, control wells received 100 μl of medium only. Drug exposure time is 72 h (day 3). The effect of phosphatase inhibition is tested in triplicate over a concentration range of […]−1×10^−8 M. Growth inhibitory effects are evaluated using the MTT assay and absorbance read at […]. The IC50 is the drug concentration at which cell growth is 50% inhibited based on the difference of optical density on day 0 and day 3 of drug exposure. Cytotoxicity is evaluated using a spectrophotometric assay which determines the percentage of cell growth following exposure of the cells to various concentrations of the phosphatase inhibitors for a period of 72 hours. The subsequent dose response curve is used to calculate IC50 values (the drug concentration at which cell growth is 50% inhibited).
Anti-cancer screening of the protein phosphatase inhibitors is assessed using the MTT assay. This assay determines cell viability by the ability of mitochondrial dehydrogenase to produce formazan crystals from 3-(4,5-dimethylthiazol-2-yl)-2,5-diphenyltetrazolium bromide. The viable cell number/well is directly proportional to the production of formazan, which following solubilization, can be measured spectrophotometrically (540 nm). This technique is also used by the National Cancer Institute to screen for new anticancer agents.
As described herein a number of cantharidin analogues have been synthesised and tested for their anticancer activity in nine cancer cell lines using the MTT assay after 72 h exposure. These new analogues are shown in FIG. 2 and have been designated MK-1 through to MK-9.

O=C1OC(O)C2C3CCC(O3)C12 (stereo not drawn) [MK-4]
Cell Cycle Distribution, G1 ([1]; HT29, 50 μM): 51.4 percentage of total | Cell Cycle Distribution, G2 + M ([1]; HT29, 50 μM): 31.6 percentage of total | Cell Cycle Distribution, S ([1]; HT29, 50 μM): 12.3 percentage of total | Cell Cycle Distribution, sub G1 ([1]; HT29, 50 μM): 4.7 percentage of total | Cell Cycle Distribution, G1 ([1]; HT29, 100 μM): 52.3 percentage of total | Cell Cycle Distribution, G2 + M ([1]; HT29, 100 μM): 29.4 percentage of total | Cell Cycle Distribution, S ([1]; HT29, 100 μM): 12.5 percentage of total | Cell Cycle Distribution, sub G1 ([1]; HT29, 100 μM): 6.0 percentage of total | Cell Cycle Distribution, G1 ([1]; HT29, 250 μM): 53.2 percentage of total | Cell Cycle Distribution, G2 + M ([1]; HT29, 250 μM): 27.6 percentage of total | Cell Cycle Distribution, S ([1]; HT29, 250 μM): 11.9 percentage of total | Cell Cycle Distribution, sub G1 ([1]; HT29, 250 μM): 7.0 percentage of total | Cell Cycle Distribution, G1 ([1]; HT29, 500 μM): 53.7 percentage of total | Cell Cycle Distribution, G2 + M ([1]; HT29, 500 μM): 29.1 percentage of total | Cell Cycle Distribution, S ([1]; HT29, 500 μM): 14.1 percentage of total | Cell Cycle Distribution, sub G1 ([1]; HT29, 500 μM): 3.4 percentage of total | Cell cycle remark ([1]; HT29, 500 μM): G1 arrest | Cell Cycle Distribution, G1 ([2]; HL60, 50 μM, 12 h): 44.7 percentage of total | Cell Cycle Distribution, G2 + M ([2]; HL60, 50 μM, 12 h): 32.3 percentage of total | Cell Cycle Distribution, S ([2]; HL60, 50 μM, 12 h): 22.3 percentage of total | Cell Cycle Distribution, sub G1 ([2]; HL60, 50 μM, 12 h): 1.9 percentage of total | Cell Cycle Distribution, G1 ([2]; HL60, 100 μM, 12 h): 45.3 percentage of total | Cell Cycle Distribution, G2 + M ([2]; HL60, 100 μM, 12 h): 30.6 percentage of total | Cell Cycle Distribution, S ([2]; HL60, 100 μM, 12 h): 22.6 percentage of total | Cell Cycle Distribution, sub G1 ([2]; HL60, 100 μM, 12 h): 2.5 percentage of total | Cell Cycle Distribution, G1 ([2]; HL60, 250 μM, 12 h): 40.0 percentage of total | Cell Cycle Distribution, G2 + M ([2]; HL60, 250 μM, 12 h): 32.0 percentage of total | Cell Cycle Distribution, S ([2]; HL60, 250 μM, 12 h): 23.0 percentage of total | Cell Cycle Distribution, sub G1 ([2]; HL60, 250 μM, 12 h): 6.0 percentage of total | Cell Cycle Distribution, G1 ([2]; HL60, 500 μM, 12 h): 27.8 percentage of total | Cell Cycle Distribution, G2 + M ([2]; HL60, 500 μM, 12 h): 44.4 percentage of total | Cell Cycle Distribution, S ([2]; HL60, 500 μM, 12 h): 22.8 percentage of total | Cell Cycle Distribution, sub G1 ([2]; HL60, 500 μM, 12 h): 6.1 percentage of total | Cell cycle remark ([2]; HL60, 500 μM, 12 h): G2 arrest | Cell cycle response ([2]; HL60, 12 h exposure): G2 arrest | Cell Cycle Distribution, G1 ([3]; HCT116, 50 μM, 12 h): 43.9 percentage of total | Cell Cycle Distribution, G2 + M ([3]; HCT116, 50 μM, 12 h): 40.7 percentage of total | Cell Cycle Distribution, S ([3]; HCT116, 50 μM, 12 h): 11.4 percentage of total | Cell Cycle Distribution, sub G1 ([3]; HCT116, 50 μM, 12 h): 4.5 percentage of total | Cell Cycle Distribution, G1 ([3]; HCT116, 100 μM, 12 h): 41.4 percentage of total | Cell Cycle Distribution, G2 + M ([3]; HCT116, 100 μM, 12 h): 44.1 percentage of total | Cell Cycle Distribution, S ([3]; HCT116, 100 μM, 12 h): 13.6 percentage of total | Cell Cycle Distribution, sub G1 ([3]; HCT116, 100 μM, 12 h): 2.0 percentage of total | Cell Cycle Distribution, G1 ([3]; HCT116, 250 μM, 12 h): 36.2 percentage of total | Cell Cycle Distribution, G2 + M ([3]; HCT116, 250 μM, 12 h): 46.9 percentage of total | Cell Cycle Distribution, S ([3]; HCT116, 250 μM, 12 h): 14.1 percentage of total | Cell Cycle Distribution, sub G1 ([3]; HCT116, 250 μM, 12 h): 3.9 percentage of total | Cell Cycle Distribution, G1 ([3]; HCT116, 500 μM, 12 h): 29.0 percentage of total | Cell Cycle Distribution, G2 + M ([3]; HCT116, 500 μM, 12 h): 46.5 percentage of total | Cell Cycle Distribution, S ([3]; HCT116, 500 μM, 12 h): 15.7 percentage of total | Cell Cycle Distribution, sub G1 ([3]; HCT116, 500 μM, 12 h): 9.6 percentage of total | Cell cycle remark ([3]; HCT116, 500 μM, 12 h): G2 arrest | Cell cycle response ([3]; HCT116, 12 h exposure): G2 arrest | IC50 [4]: 680 ± 97 µM

— patent US20060030616A1, “Anhydride modified cantharidin analogues useful in the treatment of cancer” (priority 1998, published 2006)
